The text below walks through data of patent US10189812B2, “Bi-benzyl isoquinoline derivative, preparation method and use thereof in hepatopathy treatment and prevention” (THE KEY LABORATORY OF CHEMISTRY FOR NATURAL PRODUCTS OF …, priority 2014, dated 2019).

Where two headings read alike, the source gives them in different places.

Common to all, as to assay type: cell-based
In assay [1] the test system is PLC/PRF/5 liver cancer cell strains. Description: Tetrazolium salt reduction method (MTT) on human liver cancer cell strain PLC/PRF/5. As for the experimental part: 2. human liver cancer cell strains PLC/PRF/5 model discrimination
(§1) Tested methods: Tetrazolium salt reduction method (MTT)
(1) Inoculating cells: A uniform cell suspension was prepared with culture solution containing fetal calf serum (10%). The suspension was implanted into a 96-well cell culture disc by 1000-10000 cells/200 μL per well.
(§2) (2) Culturing cells: The cells were cultured for 3-5 days according to known methods in the art (culturing time depending on experiment objective and requirement).
(§3) (3) Colour response: The cells were cultured for 3-5 days, 20 μl of MTT solution (5 mg/mL, PBS <pH=7.4>) was added in each well, incubated for 4 h. Culture was terminated and the culture suspension was carefully sucked out. As for suspension cells, they need be centrifuged before suspension solution in wells was sucked out. 150 μL of DMSO was added in each well, vibrated for 10 min. The crystal was fully dissolved.
(§4) (4) Colorimetry: Light absorbance values in each well were measured by ELISA at 490 nm and the results were recorded. The cell growth curve was drawn with time as the abscissa and absorbance values as vertical coordinates.
Model principle: Dehydrogenase related to NADP exists in mitochondria of living cell. Yellow MIT is reduced to insoluble blue-purple Formanzan. Dehydrogenase is disappeared in dead cell and MIT can not be reduced. According to reduction extent, action effect of sample on tumor cell is defected.

Assay [2] concerns MHCC97L liver cancer cell strains. Description: Tetrazolium salt reduction method (MTT) on human liver cancer cell strain MHCC97L. As for the experimental part:
3. human liver cancer cell strains MHCC97L model discrimination
as §1
(1) Inoculating cells: Inoculating cells: A uniform cell suspension was prepared with culture solution containing fetal calf serum (10%). The suspension was implanted into a 96-well cell culture disc by 1000-10000 cells/200 μL per well.
as §2, §3, §4
Model principle: Dehydrogenase related to NADP exists in mitochondria of living cell. Yellow MTT is reduced to insoluble blue-purple Formanzan. Dehydrogenase is disappeared in dead cell and MTT can not be reduced. According to reduction extent, action effect of sample on tumor cell is defected.

Another assay relates to BEL-7402 cell. Description: Sulforhodamine B (SRB) growth inhibition of human liver cancer cell strain BEL-7402. As to conditions: for inhibition at 10 µM: Homo sapiens, read-out: BEL-7402/ Inhibition (%). As for the experimental part:
1. human liver cancer cell strains BEL-7402 model discrimination
Tested methods: Sulforhodamine B (SRB)
According to growth rate of tumor cells, the adherent cells in logarithmic growth phase was implanted into a 96-well cell culture plate by 200 μL per well. Adhering for 24 h before dosing, each concentration was set with 3 holes. The corresponding concentration of saline as for control group and withering holes without cells. The tumor cells were cultured for 72 h under 5% CO2 at 37° C.
The culture plate was takene out, 50 uL of trichloro acetic acid TCA fixed cells which were diluted to 50% (m/v) were added to each well. The plate was kept for 1 h at 4° C. If suspension cells are cultured, 50 uL cold TCA (80%) was added to each well. Final concentration of TCA is 16%, standed for 5 min, kept in a refrigerator for 1 h at 4° C.
Stationary liquid was sucked out, washed by 5 times with distilled water, dried in the air.
After drying in the air, 100 μL of SRB solution was added in each well, kept for 10-30 min at the room temperature.
The supernatant was sucked out, washed by 5 times with acetic acid (1%), dried in the air.
150 μL Tris solution was added in each well, vibrated for 5 min on the tablet oscillator.
OD values were measured with ELISA at 515 nm, zeroed with blank control.
Growth inhibition ratio of tumor cells was calculated according to the following formula: Inhibition=[(OD515control hole−OD515dosing hole)/OD515control hole]×100%.
According to inhibition ratio of different concentration, IC50 was determined with Logit method. Above experiment was repeated 2-3 times to give average IC50 values as for final index.
Model principle: SRB is a kind of protein binding dye which can be binded with basic amino acid in biological macromolecules. OD values in specific wavelength range have linear relationship with cell number. According to OD values of binding substance, action effect of sample on tumor cell is defected.

The mark [3] stands for this setting: MTT, cells cultured 3-5 days, read-out: PLC/PRF/5 IC50.
[4] abbreviates: MTT, cells cultured 3-5 days, read-out: MHCC97L IC50.
Where [5] appears, read: 1.00 × 10^−5 mol/L, SRB, cells cultured 72 h.
[6] abbreviates: Homo sapiens, PLC-PRF-5, read-out: PLC/PRF/5 IC50 (μM).
[7] abbreviates: Homo sapiens, MHCC97L, read-out: MHCC97L IC50 (μM).
[8] abbreviates: Bel-7402, 1.00 × 10^−5 mol/L, SRB, cells cultured 72 h.

For the molecule `COc1cc(NS(=O)(=O)c2ccc(C)cc2)c2cc1Oc1ccc(cc1)C[C@H]1c3cc(c(OC)cc3CCN1C)Oc1c(OC)c(OC)cc3c1[C@H](C2)N(C)CC3` [Compound H-20], the IC50 came to 11 µM in assay [1] (setting [3]) and 12.5 µM in assay [2] (setting [4]). Also, the “BEL-7402/ Inhibition (%)” value in the assay with BEL-7402 cell (setting [5]) is 93.91 ± 0.40%.
With `C=CC(=O)Nc1cc(OC)c2cc1C[C@H]1c3c(cc(OC)c(OC)c3Oc3cc4c(cc3OC)CCN(C)[C@H]4Cc3ccc(cc3)O2)CCN1C` [Compound H-10], the IC50 in assay [1] (setting [6]) worked out at 10.7 µM; in assay [2] (setting [7]), 10.4 µM. The inhibition at 10 µM with BEL-7402 cell (Bel-7402, 72 h) came to 87.74 ± 0.63%.
In the case of `COc1cc(NS(=O)(=O)c2ccc(Cl)cc2)c2cc1Oc1ccc(cc1)C[C@H]1c3cc(c(OC)cc3CCN1C)Oc1c(OC)c(OC)cc3c1[C@H](C2)N(C)CC3` [Compound H-24], the IC50 in assay [1] (setting [3]) came out at 9.1 µM; in assay [2] (setting [4]), 8.2 µM. In the assay with BEL-7402 cell (setting [5]), the “BEL-7402/ Inhibition (%)” value came to 90.01 ± 2.82%.
In the same order, the values of `COc1cc(NC(=O)c2cccs2)c2cc1Oc1ccc(cc1)C[C@H]1c3cc(c(OC)cc3CCN1C)Oc1c(OC)c(OC)cc3c1[C@H](C2)N(C)CC3` [Compound H-16] are 9 µM, 11.9 µM and 93.40 ± 4.70%.
In the case of `COc1ccc2cc1Oc1ccc(cc1)C[C@H]1c3cc(c(OC)cc3CCN1C)Oc1c(O)c(OC)cc3c1[C@H](C2)N(C)CC3` [Tetrandrine B, reference compound], the values for the IC50 in assay [1] (setting [6]) and in assay [2] (setting [7]) were 16.9 µM and 12.8 µM, respectively. Moreover, in the assay on BEL-7402 cell (Bel-7402, 72 h), the inhibition at 10 µM was 23.9 ± 3.65%.
Regarding `COc1cc(NC(=O)c2ccco2)c2cc1Oc1ccc(cc1)C[C@H]1c3cc(c(OC)cc3CCN1C)Oc1c(OC)c(OC)cc3c1[C@H](C2)N(C)CC3` [Compound H-15], the IC50 in assay [1] (setting [3]) was determined as 2.5 µM; in assay [2] (setting [4]), 2.1 µM. Also, the “BEL-7402/ Inhibition (%)” value in the assay on BEL-7402 cell (setting [5]) came out at 87.23 ± 2.26%.
In the same order, the values of `COc1cc(NC(=O)N2CCOCC2)c2cc1Oc1ccc(cc1)C[C@H]1c3cc(c(OC)cc3CCN1C)Oc1c(OC)c(OC)cc3c1[C@H](C2)N(C)CC3` [Compound H-26] are 12.2 µM, 10.8 µM and 89.60 ± 2.01%.
With `COc1ccc2cc1Oc1ccc(cc1)C[C@H]1c3cc(c(OC)cc3CCN1C)Oc1c(OC)c(OC)cc3c1[C@H](C2)N(C)CC3` [Tetrandrine, 6,6′,7,12-tetramethoxy-2,2′-dimethyl berbamine, reference compound], the inhibition at 10 µM in the assay on BEL-7402 cell (setting [8]) was found to be 53.9 ± 3.72%.
As for `COc1cccc2c1C(=O)c1c(O)c3c(c(O)c1C2=O)C[C@@](O)(C(=O)CO)C[C@@H]3O[C@H]1C[C@H](N)[C@H](O)[C@H](C)O1` [Doxorubicin, reference compound], in the assay on BEL-7402 cell (setting [8]), the inhibition at 10 µM amounted to 57.8 ± 4.05%.
Take `COc1cc(NS(=O)(=O)c2ccc([N+](=O)[O-])cc2)c2cc1Oc1ccc(cc1)C[C@H]1c3cc(c(OC)cc3CCN1C)Oc1c(OC)c(OC)cc3c1[C@H](C2)N(C)CC3` [Compound H-19]: the IC50 in assay [1] (setting [3]) is 11.6 µM; in assay [2] (setting [4]), 9.4 µM. Besides, the “BEL-7402/ Inhibition (%)” value in the assay on BEL-7402 cell (setting [5]) is given as 92.70 ± 0.55%.
Turning to `COc1cc(N)c2cc1Oc1ccc(cc1)C[C@H]1c3cc(c(OC)cc3CCN1C)Oc1c(OC(=O)c3ccccc3)c(OC)cc3c1[C@H](C2)N(C)CC3` [Compound H-34], the IC50 was found to be 7.8 µM in assay [1] (Homo sapiens, PLC-PRF-5, MTT, cells cultured 3-5 days, read-out: PLC/PRF/5 IC50) and 6.6 µM in assay [2] (Homo sapiens, MHCC97L, MTT, cells cultured 3-5 days, read-out: MHCC97L IC50).
